Entries after “also recorded” stand apart in the source; their conditions may differ.
Key:
HER14 cells = assay: Texas Red-transferrin uptake in HER14 cells; format: cell-based; settings: drug added 15 or 60 minutes before Tf-TxR
Procedure: (§1) Transferrin (Tf) uptake was analysed in Swiss 3T3 and HER14 cells based on methods previously described (van der Bliek et al., 1993). Briefly, cells were plated to 60% confluency in DMEM medium plus 10% foetal calf serum after which the cells were incubated overnight (8-10 hours) in DMEM minus foetal calf serum. Texas red-transferrin (Tf-TxR, Molecular Probes, Oregon) was added to a final concentration of 5 μg/ml and the cells incubated at 37° C. for 10 minutes. Cell surface staining was removed by incubating the cells in an ice cold acid wash solution (0.2 M acetic acid +0.5 M NaCl, pH 2.8) for 15 minutes. Cells were immediately fixed with 4% paraformaldehyde for 10 minutes then washed 3 times with PBS. Nuclei were stained using DAPI (Molecular Probes, Oregon). Slides were mounted using DABCO and the fluorescence was monitored using a Leica DMLB bright field microscope and SPOT digital camera.

Swiss 3T3 cells = assay: Texas Red-transferrin uptake in Swiss 3T3 cells; format: cell-based; settings: drug added 15 or 60 minutes before Tf-TxR
Procedure: as §1

[1] = system: isolated nerve terminals (synaptosomes); assay: Glutamate release assay (exocytosis) in synaptosomes; format: cell-based, rat; settings: 30 mM KCl
Procedure: The glutamate release assay was performed using enzyme-linked fluorescent detection of released glutamate (Cousin and Robinson., 2000a, b). Briefly, synaptosomes (0.6 mg in 2 ml) were resuspended in either plus (1.2 mM CaCl2) or minus (1 mM EGTA) Ca^2+ Krebs-like solution (118.5 mM NaCl, 4.7 mM KCl, 1.18 mM MgCl2, 0.1 mM Na2HPO4, 20 mM Hepes, 10 mM glucose, pH 7.4) at 37° C. Experiments were started after addition of 1 mM NADP^+. After 1 minute 50 U of glutamate dehydrogenase was added and the synaptosome suspension was stimulated after 4 minutes with 30 mM KCl. Increases in fluorescence due to production of NADPH were monitored in a Perkin-Elmer LS-50B spectrofluorimeter at 340 nm excitation and 460 nm emission. Experiments were standardised by the addition of 4 nmol of glutamate. Data is presented as Ca^2+-dependent glutamate release, calculated as the difference between release in plus and minus Ca^2+ solution for identical stimulation conditions.

Rab3A = molecular target: T1, Rab3A (Homo sapiens, UniProt P20336); assay: [α-32P]-GTP binding to small G protein Rab3A; settings: data not shown
T1 sequence (P20336 1-220): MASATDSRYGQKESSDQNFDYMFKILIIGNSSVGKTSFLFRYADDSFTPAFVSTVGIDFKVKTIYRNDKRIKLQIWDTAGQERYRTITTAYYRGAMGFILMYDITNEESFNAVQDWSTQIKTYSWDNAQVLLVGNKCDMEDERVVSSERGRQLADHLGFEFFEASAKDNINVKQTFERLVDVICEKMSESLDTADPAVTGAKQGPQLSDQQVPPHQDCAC
Procedure: (§2) Competition of these drugs with GTP for the active site of 4 small G proteins (Rab3A, Ras, Arf2, RalA) was also tested.

[2] = system: isolated nerve terminals (synaptosomes); assay: Synaptic vesicle endocytosis, FM2-10 uptake in synaptosomes; format: cell-based, rat; settings: 100 μM, synaptosomes
Procedure: Isolated nerve terminals (synaptosomes) were prepared from rat cerebral cortex by centrifugation on discontinuous percoll gradients (Dunkley et al., 1986). Fractions 3 and 4 were pooled and used in all experiments. Endocytosis was measured using uptake of the fluorescent dye FM2-10 as previously described (Cousin and Robinson 2000a). Synaptosomes (0.6 mg in 2 ml) were incubated for 5 min at 37° C. in plus or minus Ca^2+ Krebs-like solution. FM2-10 ([…]) was added 1 min before stimulation with 30 mM KCl (S1). As FM2-10 is taken up by vesicles via endocytosis at the S1 phase of stimulation, synaptosomes were incubated with antagonists during this phase. […] After 2 min of stimulation synaptosomes were washed twice in plus Ca^2+ solution containing 1 mg/ml bovine serum albumin. The washing steps remove non-internalised FM2-10 and the tyrphostins. Washed synaptosomes were resuspended in plus Ca^2+ solution at 37° C., transferred to a fluorimeter cuvette and stimulated with a standard addition of 30 mM KCl (S2). The standard S2 stimulation releases all accumulated FM2-10 and allows endocytosis to be measured as the decrease in FM2-10 fluorescence due to dye release into solution (excitation 488 nm, emission 540 nm).
Endocytosis was calculated as the decrease in absolute fluorescence stimulated by 30 mM KCl at S2. […] Retrieval efficiency is a more accurate measure of endocytosis since it takes into account the amount of prior exocytosis. Retrieval efficiency was calculated as endocytosis/exocytosis, where endocytosis is defined as above and exocytosis as Ca^2+-dependent glutamate release after 2 min of stimulation. The retrieval efficiency value was normalised to a ratio of 1.0 for 30 mM KCl.

Ras = assay: [α-32P]-GTP binding to small G protein Ras; settings: data not shown
Procedure: as §2

RalA = molecular target: T2, RalA (Homo sapiens, UniProt P11233); assay: [α-32P]-GTP binding to small G protein RalA; settings: data not shown
T2 sequence (P11233 1-206): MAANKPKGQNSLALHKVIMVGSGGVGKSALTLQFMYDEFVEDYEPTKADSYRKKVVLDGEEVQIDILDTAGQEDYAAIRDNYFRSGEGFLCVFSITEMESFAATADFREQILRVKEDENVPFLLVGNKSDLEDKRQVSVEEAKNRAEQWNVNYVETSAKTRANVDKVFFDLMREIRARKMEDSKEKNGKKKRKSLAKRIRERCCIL
Procedure: as §2

## N#C/C(=C\c1ccc(O)c(O)c1)C(=O)NCCCNC(=O)/C(C#N)=C/c1ccc(O)c(O)c1 [bis-tyrphostin]
HER14 cells
  internalisation of texas-red labelled transferrin into HER14 cells: very large decrease in transferrin staining; also recorded: inhibited
Swiss 3T3 cells
  internalisation of texas-red labelled transferrin into Swiss 3T3 cells: very large decrease in transferrin staining; also recorded: inhibited
[1]
  exocytosis (Ca2+-dependent glutamate release): no effect
Rab3A
  effect on [α-32P]-GTP binding to Rab3A: neither drug affected
[2]
  inhibition of synaptic vesicle endocytosis (SVE): specifically decreases endocytosis
[2]; listed as Bis-tyrphostin
  inhibition of synaptic vesicle endocytosis (SVE): significantly inhibited
Ras
  effect on [α-32P]-GTP binding to Ras: neither drug affected
RalA
  effect on [α-32P]-GTP binding to RalA: neither drug affected
